The experiment deals with Ashbya gossypii ICL (isocitrate lyase) (Eremothecium gossypii, UniProt O94198). Description: Colorimetric test of purified isocitrate lyase (ICL) activity with inhibitors. The settings on record: for inhibition at 1000 µM: read-out: inhibition of ICL activity. It is filed as biochemical. The source says:
In order to identify substances exerting an inhibitory effect on ICL, the Ashbya gossypii ICL was first of all purified. The enzyme was isolated and purified after the fungal mycelium had been grown on vegetable oil. […] Approximately 78% of this activity is recovered in dissolved form in the supernatant after centrifuging at 40,000 g. Subsequent fractionation by means of ammonium sulfate precipitation results in a three-fold enrichment of the enzyme. After gel filtration through a Sephacryl S-300 column, the ICL is bound to the cation exchange material Mono S-Sepharose and eluted with NaCl. The resulting preparation is homogeneous by SDS polyacrylamide gel electrophoresis and has a specific activity of 18.4 U/mg.
The purified enzyme can be used to measure the effects of substances on its activity in a […] test (Dixon, H. and Kornberg, H. L. (1959), Biochem. J. 72, 3: Assay methods for key enzymes of the glyoxylate cycle). The effects of the tested substances on the enzyme are summarized and depicted in Table 2 and FIG. 1, respectively. Substances to be investigated included those which, as metabolites in the fungal cell, could have an inhibitory effect on the enzyme.

Setting [1] is: purified enzyme, concentration of 10 mM.

Read-outs that look alike come from different tables or passages of the source.

Sequence of Ashbya gossypii ICL (isocitrate lyase) (O94198 whole entry): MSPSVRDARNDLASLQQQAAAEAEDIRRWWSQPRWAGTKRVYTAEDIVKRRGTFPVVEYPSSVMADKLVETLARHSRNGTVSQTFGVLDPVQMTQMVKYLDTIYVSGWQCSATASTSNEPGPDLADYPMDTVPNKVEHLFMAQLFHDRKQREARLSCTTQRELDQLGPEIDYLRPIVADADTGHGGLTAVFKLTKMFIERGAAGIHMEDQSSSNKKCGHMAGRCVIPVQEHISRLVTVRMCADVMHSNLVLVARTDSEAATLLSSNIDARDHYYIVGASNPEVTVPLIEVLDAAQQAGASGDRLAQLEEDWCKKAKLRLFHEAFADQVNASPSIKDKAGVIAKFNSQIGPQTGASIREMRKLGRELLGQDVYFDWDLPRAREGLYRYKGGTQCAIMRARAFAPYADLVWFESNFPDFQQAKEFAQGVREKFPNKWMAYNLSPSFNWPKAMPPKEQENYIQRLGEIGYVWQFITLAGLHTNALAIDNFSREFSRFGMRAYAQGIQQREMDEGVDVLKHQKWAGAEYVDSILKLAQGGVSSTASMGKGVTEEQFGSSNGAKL

As to `C=C(CC(=O)O)C(=O)O` [itaconate], the inhibition at 1000 µM worked out at 78%.

For the compound `C=C(OP(=O)(O)O)C(=O)O` [phosphoenolpyruvate], the inhibition at 10000 µM under setting [1] was greater than 50%.

In the case of `O=C(O)C(=O)O` [oxalate], where the note is “purified enzyme, concentration of 1 mM”, the inhibition at 1000 µM amounted to 95%.

Turning to `O=C(O)[C@H](O)[C@@H](O)[C@H](O)[C@H](O)COP(=O)(O)O` [6-P-gluconate], the “inhibition of ICL activity” value under setting [1] is given as “greater than 50%”.

Source of the values: patent US5976844A, “Riboflavin-production process by means of micro-organisms with modified isocitratlyase activity” (BASF Aktiengesellschaft, priority 1995, dated 1999).
